Data taken from ChEMBL document CHEMBL1148806 (J Med Chem, 2007).
Calls of active or inactive are those of the source. The rule behind the calls is not given here.

Columns and labels:
[1] = tested on: Liver microsomes; assay: Antioxidant activity in rat hepatic microsomal membrane at 1 mM; assay type: functional; settings: Microsome
[2] = biological target: T1, Beta-2 adrenergic receptor (Rattus norvegicus, UniProt P10608); assay: Vasodilating activity against phenylephrine-induced contractions in rat thoracic aorta
[3] = biological target: Beta-2 adrenergic receptor (Rattus norvegicus) (UniProt P10608); assay type: functional, tissue-based; settings: Thoracic aorta, 100 uM
[4] = Effect on nitric oxide release in phosphate buffer at pH 7.4 in presence of cysteine at 100 uM; assay type: functional
[5] = biological target: T2, Beta-2 adrenergic receptor (Cavia porcellus, UniProt Q8K4Z4)
[6] = biological target: T1, Beta-2 adrenergic receptor
Description: Vasodilating activity against phenylephrine-induced contraction in rat thoracic aorta in presence of 1H-[1,2,4]oxadiazolo-[4,3-a]quinoxalin-1-one

[7] = tested on: Liver microsomes; assay: Antioxidant activity in rat hepatic microsomal membrane
[8] = biological target: Beta-2 adrenergic receptor (Cavia porcellus) (UniProt Q8K4Z4); assay: Agonist activity at adrenergic beta-2 receptor in guinea pig tracheal rings assessed as myorelaxing activity on carbachol-induced contraction at 100 uM; assay type: functional; parameters: scale not given: the % may be the effect or the level left
[9] = biological target: Beta-2 adrenergic receptor (Rattus norvegicus) (UniProt P10608); assay: Vasodilating activity in rat thoracic aorta on phenylephrine-induced contraction at 100 uM; assay type: functional, tissue-based
[10] = biological target: T2, Beta-2 adrenergic receptor; remark: listed apart in the source
Description: Agonist activity at adrenergic beta-2 receptor in guinea pig tracheal rings assessed as myorelaxing activity on carbachol-induced contraction in presence of 1H-[1,2,4]oxadiazolo-[4,3-a]quinoxalin-1-one

[11] = biological target: T2, Beta-2 adrenergic receptor; remark: listed apart in the source

T2 sequence (Q8K4Z4 whole entry): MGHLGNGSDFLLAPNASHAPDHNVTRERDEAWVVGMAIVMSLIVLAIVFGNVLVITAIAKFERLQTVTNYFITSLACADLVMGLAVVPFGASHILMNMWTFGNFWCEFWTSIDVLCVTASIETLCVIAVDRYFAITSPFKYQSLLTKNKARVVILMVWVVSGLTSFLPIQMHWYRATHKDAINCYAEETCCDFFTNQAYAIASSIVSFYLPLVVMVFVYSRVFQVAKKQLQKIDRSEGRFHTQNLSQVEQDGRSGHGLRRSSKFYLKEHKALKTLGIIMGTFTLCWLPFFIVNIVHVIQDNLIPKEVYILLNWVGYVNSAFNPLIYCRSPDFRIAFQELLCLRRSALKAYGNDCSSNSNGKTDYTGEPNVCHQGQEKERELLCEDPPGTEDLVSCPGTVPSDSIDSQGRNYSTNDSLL
T1 sequence (P10608 whole entry): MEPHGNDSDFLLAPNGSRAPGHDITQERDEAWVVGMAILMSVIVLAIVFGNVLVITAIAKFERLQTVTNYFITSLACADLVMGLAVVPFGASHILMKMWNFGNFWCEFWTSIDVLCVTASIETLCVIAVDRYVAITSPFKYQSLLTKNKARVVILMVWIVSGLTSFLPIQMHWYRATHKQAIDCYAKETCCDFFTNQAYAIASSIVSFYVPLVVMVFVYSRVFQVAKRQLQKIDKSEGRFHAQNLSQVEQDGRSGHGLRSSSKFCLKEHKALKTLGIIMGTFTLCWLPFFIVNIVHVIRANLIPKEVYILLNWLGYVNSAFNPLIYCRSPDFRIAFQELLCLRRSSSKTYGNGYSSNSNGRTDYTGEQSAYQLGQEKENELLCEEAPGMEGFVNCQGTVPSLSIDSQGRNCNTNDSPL
Beta-2 adrenergic receptor (Rattus norvegicus), sequence (P10608 whole entry, looked up): as the sequence (P10608 whole entry) above
Beta-2 adrenergic receptor (Cavia porcellus), sequence (Q8K4Z4 whole entry, looked up): as the sequence (Q8K4Z4 whole entry) above

SMILES: NC(=O)c1c(CO)no[n+]1[O-]
- Activity [1]: inactive
- EC50 [2]: 6.3 µM
- Activity [3]: < 50%
- Activity [4]: 12%
- EC50 [5]: 86 µM

SMILES: CCOc1no[n+]([O-])c1S(=O)(=O)c1ccccc1
- EC50 [2]: 0.012 µM
- EC50 [6]: 1.2 µM
- Activity [4]: 36%
- IC50 [7]: 110 µM
- EC50 [5]: 2.3 µM

SMILES: Cc1c(CO)no[n+]1[O-]
- Activity [1]: inactive
- Activity [4]: < 1%
- Activity [8]: < 50%
- Activity [9]: < 50%

SMILES: CC(Cc1ccc(OCc2no[n+]([O-])c2C(N)=O)cc1)NCC(O)c1cc(O)cc(O)c1 (racemic) [listing 1 of 2 here]
- EC50 [2]: 1.2 µM
- EC50 [6]: 16 µM
- EC50 [10]: 1.1 µM
- EC50 [5]: 1 µM

SMILES: CC(Cc1ccc(OCc2no[n+]([O-])c2C(N)=O)cc1)NCC(O)c1cc(O)cc(O)c1 (racemic) [listing 2 of 2 here]
- Activity [4]: 10.4%

SMILES: CC(Cc1ccc(Oc2no[n+]([O-])c2S(=O)(=O)c2ccccc2)cc1)NCC(O)c1cc(O)cc(O)c1 (stereo in doubt; 15a) [listing 1 of 2 here]
- EC50 [2]: 0.014 µM
- EC50 [6]: 0.86 µM
- IC50 [7]: 13.5 µM
- EC50 [10]: 0.017 µM
- EC50 [5]: 0.018 µM

SMILES: CC(Cc1ccc(Oc2no[n+]([O-])c2S(=O)(=O)c2ccccc2)cc1)NCC(O)c1cc(O)cc(O)c1 (stereo in doubt; 15a) [listing 2 of 2 here]
- Activity [4]: 28.4%

SMILES: CC(Cc1ccc(Oc2no[n+]([O-])c2S(=O)(=O)c2ccccc2)cc1)NCC(O)c1cc(O)cc(O)c1 (stereo in doubt; 15b) [listing 1 of 2 here]
- EC50 [2]: 0.014 µM
- EC50 [6]: 1.3 µM
- EC50 [10]: 0.44 µM
- EC50 [5]: 0.25 µM

SMILES: CC(Cc1ccc(Oc2no[n+]([O-])c2S(=O)(=O)c2ccccc2)cc1)NCC(O)c1cc(O)cc(O)c1 (stereo in doubt; 15b) [listing 2 of 2 here]
- Activity [4]: 27.5%

SMILES: CC(Cc1ccc(Oc2nonc2S(=O)(=O)c2ccccc2)cc1)NCC(O)c1cc(O)cc(O)c1 (stereo in doubt; 16a)
- IC50 [7]: 57 µM
- EC50 [5]: 0.039 µM

SMILES: CC(Cc1ccc(Oc2nonc2S(=O)(=O)c2ccccc2)cc1)NCC(O)c1cc(O)cc(O)c1 (stereo in doubt; 16b)
- EC50 [11]: 0.039 µM

SMILES: CC(Cc1ccc(OCc2no[n+]([O-])c2C(N)=O)cc1)NCC(O)c1cc(O)cc(O)c1 (stereo in doubt; 34a) [listing 1 of 2 here]
- EC50 [2]: 1.2 µM
- EC50 [6]: 14 µM
- IC50 [7]: 156 µM
- EC50 [10]: 0.13 µM
- EC50 [5]: 0.11 µM

SMILES: CC(Cc1ccc(OCc2no[n+]([O-])c2C(N)=O)cc1)NCC(O)c1cc(O)cc(O)c1 (stereo in doubt; 34a) [listing 2 of 2 here]
- Activity [4]: 11.5%

SMILES: CC(Cc1ccc(OCc2nonc2C(N)=O)cc1)NCC(O)c1cc(O)cc(O)c1 (stereo in doubt; 35a)
- IC50 [7]: 286 µM
- EC50 [5]: 0.029 µM

SMILES: CC(Cc1ccc(OCc2nonc2C(N)=O)cc1)NCC(O)c1cc(O)cc(O)c1 (stereo in doubt; 35b)
- EC50 [5]: 0.17 µM

SMILES: Cc1c(COc2ccc(CC(C)NCC(O)c3cc(O)cc(O)c3)cc2)no[n+]1[O-] (stereo in doubt; 36a) [listing 1 of 2 here]
- EC50 [2]: 18 µM
- IC50 [7]: 298 µM
- EC50 [10]: 0.23 µM
- EC50 [5]: 0.22 µM

SMILES: Cc1c(COc2ccc(CC(C)NCC(O)c3cc(O)cc(O)c3)cc2)no[n+]1[O-] (stereo in doubt; 36a) [listing 2 of 2 here]
- Activity [3]: < 50%
- Activity [4]: < 1%

SMILES: Cc1c(COc2ccc(CC(C)NCC(O)c3cc(O)cc(O)c3)cc2)no[n+]1[O-] (stereo in doubt; 36b) [listing 1 of 2 here]
- EC50 [2]: 20 µM
- EC50 [10]: 1.2 µM
- EC50 [5]: 1.3 µM

SMILES: Cc1c(COc2ccc(CC(C)NCC(O)c3cc(O)cc(O)c3)cc2)no[n+]1[O-] (stereo in doubt; 36b) [listing 2 of 2 here]
- Activity [3]: < 50%
- Activity [4]: < 1%

SMILES: Cc1nonc1COc1ccc(CC(C)NCC(O)c2cc(O)cc(O)c2)cc1 (stereo in doubt; 37a)
- IC50 [7]: 123 µM
- EC50 [5]: 0.11 µM

SMILES: Cc1nonc1COc1ccc(CC(C)NCC(O)c2cc(O)cc(O)c2)cc1 (stereo in doubt; 37b)
- EC50 [5]: 2.2 µM
